We go through ten compounds from patent US20050282743A1, “Molecular interactions in cells” (Arbor Vita Corporation, priority 2001, published 2005).

What all share (assay type): binding
Test [1] has as its target T1, NeDLG (PDZ Domain 1, 2) (Homo sapiens, UniProt Q92796).
T1 construct: When more than one PDZ domain was cloned, the DNA portion cloned represents the PDZ domains and the cDNA portion located between individual domains; made in house; host or cells: E. coli (DH5alpha, BL21 or JM109)
T1 sequence (Q92796 129-315 limits assumed): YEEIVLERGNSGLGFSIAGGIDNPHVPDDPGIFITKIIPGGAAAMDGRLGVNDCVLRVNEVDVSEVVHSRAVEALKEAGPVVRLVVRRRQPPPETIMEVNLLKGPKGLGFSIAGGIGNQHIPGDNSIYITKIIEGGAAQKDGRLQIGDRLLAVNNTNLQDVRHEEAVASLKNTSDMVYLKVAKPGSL
As to the kind of experiment: G' assay, TABLE 12. Particulars: A450 nm class of biotinylated PL peptide bound; 0 in conc columns = peptide 10 uM, protein 5 ug/ml. The method in brief:
(§1)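 PL peptide binding to PDZ domain protein, peptide at 10 uM; protein at 5 ug/ml unless another concentration is listed for Kd determination. Bound peptide read at A450 nm and binned into classes 0–5.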

The target in test [2] is T2, KIAA807 (Homo sapiens, UniProt Q6P0Q8).
T2 construct: made in house; host or cells: E. coli (DH5alpha, BL21 or JM109)
T2 sequence (Q6P0Q8 1104-1192 limits assumed): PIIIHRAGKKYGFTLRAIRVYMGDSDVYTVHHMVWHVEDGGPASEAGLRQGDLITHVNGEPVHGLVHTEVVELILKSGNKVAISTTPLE
As to the kind of experiment: G' assay, TABLE 12. To be noted: A450 nm class of biotinylated PL peptide bound; 0 in conc columns = peptide 10 uM, protein 5 ug/ml. A digest of the protocol:
as §1

The target in test [3] is T3, PDZ-domain polypeptide (GST/PDZ fusion protein) (Homo sapiens, UniProt Q96JH8).
T3 construct: made in house; host or cells: E. coli (DH5alpha, BL21 or JM109)
T3 sequence (Q96JH8 1-1075): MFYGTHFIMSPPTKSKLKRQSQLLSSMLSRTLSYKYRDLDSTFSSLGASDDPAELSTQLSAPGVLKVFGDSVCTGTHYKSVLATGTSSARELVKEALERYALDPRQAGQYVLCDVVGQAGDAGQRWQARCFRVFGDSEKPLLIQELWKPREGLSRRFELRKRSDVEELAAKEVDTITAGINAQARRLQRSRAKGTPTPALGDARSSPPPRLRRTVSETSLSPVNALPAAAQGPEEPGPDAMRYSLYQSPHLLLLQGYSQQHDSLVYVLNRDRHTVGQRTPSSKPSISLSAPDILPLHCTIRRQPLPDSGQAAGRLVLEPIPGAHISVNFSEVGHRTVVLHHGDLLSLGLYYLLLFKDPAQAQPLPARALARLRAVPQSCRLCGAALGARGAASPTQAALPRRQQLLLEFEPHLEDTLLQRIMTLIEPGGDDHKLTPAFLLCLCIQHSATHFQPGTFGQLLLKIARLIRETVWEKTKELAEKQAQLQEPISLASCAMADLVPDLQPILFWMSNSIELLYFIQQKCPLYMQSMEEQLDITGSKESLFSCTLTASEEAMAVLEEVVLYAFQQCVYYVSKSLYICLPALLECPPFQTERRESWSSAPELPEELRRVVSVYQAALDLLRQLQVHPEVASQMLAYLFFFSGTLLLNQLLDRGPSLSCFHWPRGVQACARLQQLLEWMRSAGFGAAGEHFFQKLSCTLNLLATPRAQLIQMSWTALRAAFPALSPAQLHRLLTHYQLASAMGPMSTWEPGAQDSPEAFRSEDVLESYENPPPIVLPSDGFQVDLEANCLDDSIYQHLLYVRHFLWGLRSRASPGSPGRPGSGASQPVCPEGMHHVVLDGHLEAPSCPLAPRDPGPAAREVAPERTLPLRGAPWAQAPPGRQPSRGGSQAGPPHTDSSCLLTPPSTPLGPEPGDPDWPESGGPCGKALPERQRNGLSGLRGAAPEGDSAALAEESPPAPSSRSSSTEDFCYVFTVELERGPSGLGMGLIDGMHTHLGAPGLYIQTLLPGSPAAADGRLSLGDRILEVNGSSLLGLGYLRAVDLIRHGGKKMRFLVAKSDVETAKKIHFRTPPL
As to the kind of experiment: Apparent affinity (Kd) by titration of PL peptide in the G assay. Particulars: PDZ FLJ 10324, PDZ Domain 1. The method in brief:
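A fixed concentration of GST/PDZ fusion protein, 5 ug/ml by default, was mixed in solution with increasing labeled PL peptide (e.g. 0.1 uM-1 mM). Reaction times ranged from 10 minutes to 2 days at 4-37° C. Complexes were separated from free peptide and detected via the label as in the G assay, apparent affinity coming from the saturating concentration.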

Test [4] deals with T4, DLG1 (PDZ Domain 1, 2) (Homo sapiens, UniProt Q12959).
T4 construct: made in house; host or cells: E. coli (DH5alpha, BL21 or JM109)
As to the kind of experiment: G' assay, TABLE 12. Particulars: A450 nm class of biotinylated PL peptide bound; 0 in conc columns = peptide 10 uM, protein 5 ug/ml. The method in brief: as §1

Where [5] appears, read: titration of the PL peptide, read-out: Peptide Optimal Conc (Kd, dissociation constant).

Like-named read-outs stand apart in the source and are kept apart here. Ends that are not written are not given here. Peptide text beside a SMILES is read from it. * marks the point of attachment. Biotin = O=C1N[C@H]2[C@H](CS[C@H]2CCCCC(=O)*)N1

T4 sequence (Q12959 213-413 limits assumed): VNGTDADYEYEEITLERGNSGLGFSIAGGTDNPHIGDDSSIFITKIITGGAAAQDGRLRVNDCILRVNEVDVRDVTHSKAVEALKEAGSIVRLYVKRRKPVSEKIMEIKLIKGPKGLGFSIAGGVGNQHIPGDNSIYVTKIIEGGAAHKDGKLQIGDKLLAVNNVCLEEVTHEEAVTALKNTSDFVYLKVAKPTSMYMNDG

With “ISGTPTSTMVHGMTSSSSVV (Biotin-ISGTPTSTMVHGMTSSSSVV) [Clasp-2]”, the Classification in test [1] is on record as 2 (A450 nm 1-2).
For `CC[C@H](C)[C@H](NC(=O)[C@H](CO)NC(=O)[C@H](CCC(=O)O)NC(=O)[C@H](Cc1ccc(O)cc1)NC(=O)[C@H](CC(=O)O)NC(=O)[C@H](CC(N)=O)NC(=O)[C@H](CCC(=O)O)NC(=O)[C@H](CCCCN)NC(=O)CCCC[C@@H]1SC[C@@H]2NC(=O)N[C@@H]21)C(=O)N[C@@H](CO)C(=O)N[C@@H](CC(=O)O)C(=O)N[C@@H](CC(C)C)C(=O)N[C@@H](CCC(N)=O)C(=O)N[C@@H](CCC(N)=O)C(=O)NCC(=O)N[C@@H](CCCNC(=N)N)C(=O)N[C@@H](CC(=O)O)C(=O)N[C@H](C(=O)N[C@H](C(=O)N[C@@H](CCCNC(=N)N)C(=O)N[C@@H](CC(C)C)C(=O)O)[C@@H](C)O)[C@@H](C)CC` [PAG] (Biotin-KENDYESISDLQQGRDITRL-OH; C-terminus assumed), the Classification in test [2] is reported as 5 (A450 nm of 4 more than 2× repeated).
On to `CC[C@H](C)[C@H](NC(=O)[C@H](CCCCN)NC(=O)[C@@H](NC(=O)[C@H](CO)NC(=O)[C@@H]1CCCN1C(=O)[C@H](Cc1ccccc1)NC(=O)[C@@H](NC(=O)[C@@H](NC(=O)[C@H](CCCNC(=N)N)NC(=O)[C@H](CCC(=O)O)NC(=O)[C@H](CC(C)C)NC(=O)[C@H](CC(C)C)NC(=O)[C@H](CC(C)C)NC(=O)[C@@H](NC(=O)CNC(=O)[C@@H](NC(=O)CCCC[C@@H]1SC[C@@H]2NC(=O)N[C@@H]21)C(C)C)[C@@H](C)O)C(C)C)[C@@H](C)CC)C(C)C)C(=O)N[C@@H](C)C(=O)N[C@H](C(=O)N[C@@H](CC(C)C)C(=O)N[C@H](C(=O)O)C(C)C)[C@@H](C)O` [Adenovirus E4 Type9], for which the Kd in test [3] (Protein Optimal Conc 5, read-out: Peptide Optimal Conc (Kd by titration of the PL peptide)) turned out to be 100 nM.
For the compound `CC[C@H](C)[C@H](NC(=O)[C@H](C)NC(=O)[C@H](CC(C)C)NC(=O)[C@H](Cc1c[nH]c2ccccc12)NC(=O)[C@H](Cc1c[nH]cn1)NC(=O)[C@H](CCC(N)=O)NC(=O)[C@H](CC(C)C)NC(=O)[C@H](CCC(N)=O)NC(=O)[C@H](Cc1ccccc1)NC(=O)[C@H](CCC(N)=O)NC(=O)[C@H](CCCNC(=N)N)NC(=O)[C@@H](NC(=O)[C@H](CC(=O)O)NC(=O)[C@H](CCCNC(=N)N)NC(=O)[C@H](CCC(N)=O)NC(=O)[C@H](C)NC(=O)[C@@H](NC(=O)[C@H](CC(C)C)NC(=O)[C@H](Cc1c[nH]cn1)NC(=O)[C@H](Cc1c[nH]cn1)NC(=O)CCCC[C@@H]1SC[C@@H]2NC(=O)N[C@@H]21)C(C)C)[C@@H](C)CC)C(=O)O` [noradrenaline transporter] (Biotin-HHLVAQRDIRQFQLQHWLAI-OH; C-terminus assumed), the Kd in test [3] (Peptide Optimal Conc (Kd by titration of the PL peptide)) is 600 nM.
On to `CC[C@H](C)[C@H](NC(=O)[C@H](Cc1ccc(O)cc1)NC(=O)[C@@H](NC(=O)[C@@H]1CCCN1C(=O)[C@H](CCC(N)=O)NC(=O)[C@H](CCC(=O)O)NC(=O)[C@H](CCC(N)=O)NC(=O)[C@H](C)NC(=O)[C@@H](NC(=O)[C@H](CC(C)C)NC(=O)[C@H](CC(C)C)NC(=O)[C@H](CCCNC(=N)N)NC(=O)[C@H](Cc1ccc(O)cc1)NC(=O)[C@H](CCSC)NC(=O)[C@H](C)NC(=O)[C@H](C)NC(=O)[C@@H]1CCCN1C(=O)[C@H](CCSC)NC(=O)[C@@H](NC(=O)[C@H](CCCCN)NC(=O)CCCC[C@@H]1SC[C@@H]2NC(=O)N[C@@H]21)[C@@H](C)O)[C@@H](C)O)C(C)C)C(=O)O` [MINT-1] (Biotin-KTMPAAMYRLLTAQEQPVYI-OH; C-terminus assumed), for which, in test [3] (setting [5]), the Kd was determined as 1000 nM.
In the case of `CC[C@H](C)[C@H](NC(=O)[C@H](CC(=O)O)NC(=O)[C@H](CCC(=O)O)NC(=O)[C@H](CCCNC(=N)N)NC(=O)[C@@H](NC(=O)CCCC[C@@H]1SC[C@@H]2NC(=O)N[C@@H]21)[C@@H](C)O)C(=O)N[C@@H](Cc1ccc(O)cc1)C(=O)N[C@H](C(=O)N[C@@H](CC(N)=O)C(=O)N[C@@H](Cc1ccc(O)cc1)C(=O)N1CCC[C@H]1C(=O)N[C@H](C(=O)N[C@@H](Cc1ccccc1)C(=O)N[C@@H](CO)C(=O)N[C@@H](CCCNC(=N)N)C(=O)N[C@@H](CCCNC(=N)N)C(=O)N1CCC[C@H]1C(=O)N[C@@H](CCCCN)C(=O)N[C@H](C(=O)N[C@@H](CCCNC(=N)N)C(=O)N[C@H](C(=O)O)C(C)C)[C@@H](C)O)[C@@H](C)O)C(C)C` [DNAM-1] (Biotin-TREDIYVNYPTFSRRPKTRV-OH; C-terminus assumed), the Classification in test [1] was 2 (A450 nm 1-2); in test [4], 1 (A450 nm 0-1).
For the compound “LASKSAEEGKQIPDSLSTDL (Biotin-LASKSAEEGKQIPDSLSTDL) [Dock2]”, in test [2], the Classification is 5 (A450 nm of 4 more than 2× repeated).
Regarding `CC[C@H](C)[C@H](NC(=O)[C@H](Cc1ccc(O)cc1)NC(=O)[C@H](CC(C)C)NC(=O)[C@H](CCC(N)=O)NC(=O)[C@H](Cc1c[nH]cn1)NC(=O)[C@H](CO)NC(=O)[C@H](C)NC(=O)[C@H](CC(C)C)NC(=O)[C@@H](NC(=O)[C@H](CC(=O)O)NC(=O)[C@H](CCSC)NC(=O)[C@H](Cc1ccccc1)NC(=O)[C@@H]1CCCN1C(=O)[C@H](CCCNC(=N)N)NC(=O)[C@@H](NC(=O)[C@H](CC(C)C)NC(=O)[C@H](CC(N)=O)NC(=O)[C@H](CC(=O)O)NC(=O)[C@@H](NC(=O)[C@H](CO)NC(=O)CCCC[C@@H]1SC[C@@H]2NC(=O)N[C@@H]21)[C@@H](C)O)C(C)C)[C@@H](C)O)C(=O)O` [presenilin-2] (Biotin-STDNLVRPFMDTLASHQLYI-OH; C-terminus assumed), the Kd in test [3] (setting [5]) came out at 1000 nM.
Consider “QATSRNGHSARQHVVADTEL (Biotin-QATSRNGHSARQHVVADTEL) [CD34]”, for which, in test [2], the Classification was 5 (A450 nm of 4 more than 2× repeated).
Turning to `CC(C)C[C@H](NC(=O)[C@H](Cc1c[nH]c2ccccc12)NC(=O)[C@H](Cc1c[nH]cn1)NC(=O)[C@H](CCCNC(=N)N)NC(=O)[C@H](CC(C)C)NC(=O)[C@@H](NC(=O)[C@H](Cc1ccccc1)NC(=O)[C@H](CCC(N)=O)NC(=O)[C@H](CCCNC(=N)N)NC(=O)[C@@H](NC(=O)[C@H](CCC(=O)O)NC(=O)CNC(=O)[C@H](CCCNC(=N)N)NC(=O)[C@H](CC(=O)O)NC(=O)[C@@H](NC(=O)[C@H](CC(C)C)NC(=O)[C@H](CCC(=O)O)NC(=O)[C@H](CCCNC(=N)N)NC(=O)CCCC[C@@H]1SC[C@@H]2NC(=O)N[C@@H]21)C(C)C)C(C)C)[C@@H](C)O)C(=O)N[C@@H](CCCCN)C(=O)N[C@H](C(=O)O)C(C)C` [Dopamine transporter (Na+-dependent)] (Biotin-RELVDRGEVRQFTLRHWLKV-OH; C-terminus assumed), the Kd in test [3] (read-out: Peptide Optimal Conc (Kd by titration of the PL peptide)) came to 300 nM.
